Measurements reported in patent US12649980B2, “Three-dimensional surface for protein and small molecule microarrays” (The Johns Hopkins University, priority 2019, dated 2026).

Test system: A549 cells
Test: [3H]-2DG uptake assay in A549 cells
Format: cell-based, human
Conditions: 10 min incubation with compound, mean ± s.d., n = 3
Method: To determine which of the 17 rapafucin hits inhibited the transporter activity of GLUT1, an orthogonal glucose uptake assay using 2-deoxy-D-[3H] glucose ([3H]-2DG), a nonhydrolyzable, radioactive glucose analog, was employed. Each hit was separately incubated with A549 cells for 10 min before the amount of [3H]-2DG taken up by the cells was measured using scintillation counting. […] The effect of JW11-D2 on uptake of [3H]-2DG in human red blood cells that exclusively express GLUT1 was then determined. Helgerson and Carruthers, J. Biol. Chem. 1987, 262, 5464-5475. […] To further improve the potency of JW11-D2, a structure-activity relationship (SAR) study was performed by synthesizing 21 new analogs of JW11-D2 using different amino acid building blocks.
The inhibitory activity of compounds on glucose transport was analyzed by measuring the cell uptake of [3H]-2DG as previously described. Ulanovskaya et al., Chem. Biol. 2011, 18, 222-230. Briefly, cells were washed twice and incubated in low-glucose medium for 10 min. Cells were added drugs and incubated for another 10 min before adding [3H]-2DG. After 10 min incubation with [3H]-2DG, cells were washed twice and lysed with 0.2 N NaOH plus 0.2% SDS. The cell lysate was transferred to a new tube containing 1 mL of optiphase supermix. Glucose uptake was quantified with a scintillation counter.

Compound	IC50
CCC(C)C1C(=O)NCC(=O)N(C)CCC=CC(=O)OCC(C)(C)C(=O)C(=O)N2CCCCC2C(=O)OC(CCc2ccc(OC)c(OC)c2)c2cccc(c2)NC(=O)CCC(=O)N(C)C(Cc2ccccc2)C(=O)NC(Cc2ccccc2)C(=O)N1C (centres unmarked) [JW11-D2-21]	> 3000 nM
CCC(C)C1C(=O)NC(Cc2ccccc2)C(=O)N(C)C(C(C)CC)C(=O)NCC(=O)N(C)CCC=CC(=O)OCC(C)(C)C(=O)C(=O)N2CCCCC2C(=O)OC(CCc2ccc(OC)c(OC)c2)c2cccc(c2)NC(=O)CCC(=O)N1C (centres unmarked) [JW11-D2-17]	> 3000 nM
CCCC1C(=O)NCC(=O)N(C)CCC=CC(=O)OCC(C)(C)C(=O)C(=O)N2CCCCC2C(=O)OC(CCc2ccc(OC)c(OC)c2)c2cccc(c2)NC(=O)CCC(=O)N(C)C(CC(C)C)C(=O)NC(Cc2ccccc2)C(=O)N1C (centres unmarked) [JW11-D2-8]	> 3000 nM
CCC(C)C1C(=O)NCC(=O)N(C)CCC=CC(=O)OCC(C)(C)C(=O)C(=O)N2CCCCC2C(=O)OC(CCc2ccc(OC)c(OC)c2)c2cccc(c2)NC(=O)CCC(=O)N(C)C(CC(C)C)C(=O)NC(Cc2ccc(O)cc2)C(=O)N1C (centres unmarked) [JW11-D2-13]	> 3000 nM
CCC(C)C1C(=O)N(C)CC(=O)N(C)CCC=CC(=O)OCC(C)(C)C(=O)C(=O)N2CCCCC2C(=O)OC(CCc2ccc(OC)c(OC)c2)c2cccc(c2)NC(=O)CCC(=O)N(C)C(CC(C)C)C(=O)NC(Cc2ccccc2)C(=O)N1C (centres unmarked) [JW11-D2-1]	> 3000 nM
CCC(C)C1C(=O)NCC(=O)N(C)CCC=CC(=O)OCC(C)(C)C(=O)C(=O)N2CCCCC2C(=O)OC(CCc2ccc(OC)c(OC)c2)c2cccc(c2)NC(=O)CCC(=O)NC(CC(C)C)C(=O)NC(Cc2ccccc2)C(=O)N1C (centres unmarked) [JW11-D2-16]	> 3000 nM
CCC(C)C1C(=O)N2CCCC2C(=O)N(C)CCC=CC(=O)OCC(C)(C)C(=O)C(=O)N2CCCCC2C(=O)OC(CCc2ccc(OC)c(OC)c2)c2cccc(c2)NC(=O)CCC(=O)N(C)C(CC(C)C)C(=O)NC(Cc2ccccc2)C(=O)N1C (centres unmarked) [JW11-D2-2]	> 3000 nM
CCCC1C(=O)NC(Cc2ccccc2)C(=O)N(C)C(C(C)CC)C(=O)NCC(=O)N(C)CCC=CC(=O)OCC(C)(C)C(=O)C(=O)N2CCCCC2C(=O)OC(CCc2ccc(OC)c(OC)c2)c2cccc(c2)NC(=O)CCC(=O)N1C (centres unmarked) [JW11-D2-18]	> 3000 nM
CCC(C)C1C(=O)NCC(=O)N(C)CCC=CC(=O)OCC(C)(C)C(=O)C(=O)N2CCCCC2C(=O)OC(CCc2ccc(OC)c(OC)c2)c2cccc(c2)NC(=O)CCC(=O)N(C)C(CC(C)C)C(=O)NC(CC(C)C)C(=O)N1C (centres unmarked) [JW11-D2-15]	> 3000 nM
COc1ccc(CCC2OC(=O)C3CCCCN3C(=O)C(=O)C(C)(C)COC(=O)C=CCCN(C)C(=O)CNC(=O)C(C(C)C)N(C)C(=O)C(Cc3ccccc3)NC(=O)C(CC(C)C)N(C)C(=O)CCC(=O)Nc3cccc2c3)cc1OC (centres unmarked) [JW11-D2-4]	30.2 ± 2.3 nM
CCC(C)C1C(=O)NCC(=O)N(C)CCC=CC(=O)OCC(C)(C)C(=O)C(=O)N2CCCCC2C(=O)OC(CCc2ccc(OC)c(OC)c2)c2cccc(c2)NC(=O)CCC(=O)N(C)C(C(C)C)C(=O)NC(Cc2ccccc2)C(=O)N1C (centres unmarked) [JW11-D2-20]	62.3 ± 5.1 nM
CCCCC1C(=O)NC(Cc2ccccc2)C(=O)N(C)C(C(C)CC)C(=O)NCC(=O)N(C)CCC=CC(=O)OCC(C)(C)C(=O)C(=O)N2CCCCC2C(=O)OC(CCc2ccc(OC)c(OC)c2)c2cccc(c2)NC(=O)CCC(=O)N1C (centres unmarked) [JW11-D2-19]	> 3000 nM
CCC(C)C1C(=O)N2CCCC2C(=O)N(C)CCC=CC(=O)OCC(C)(C)C(=O)C(=O)N2CCCCC2C(=O)OC(CCc2ccc(OC)c(OC)c2)c2cccc(c2)NC(=O)CCC(=O)N(C)C(CC(C)C)C(=O)NC(Cc2ccccc2)C(=O)N1C (centres unmarked) [JW11-D2-3]	> 3000 nM
CCCCC1C(=O)NCC(=O)N(C)CCC=CC(=O)OCC(C)(C)C(=O)C(=O)N2CCCCC2C(=O)OC(CCc2ccc(OC)c(OC)c2)c2cccc(c2)NC(=O)CCC(=O)N(C)C(CC(C)C)C(=O)NC(Cc2ccccc2)C(=O)N1C (centres unmarked) [JW11-D2-7]	> 3000 nM
COc1ccc(CCC2OC(=O)C3CCCCN3C(=O)C(=O)C(C)(C)COC(=O)C=CCCN(C)C(=O)CNC(=O)C(CC(C)C)N(C)C(=O)C(Cc3ccccc3)NC(=O)C(CC(C)C)N(C)C(=O)CCC(=O)Nc3cccc2c3)cc1OC (centres unmarked) [JW11-D2-9]	> 3000 nM
CCC(C)C1C(=O)NCC(=O)N(C)CCC=CC(=O)OCC(C)(C)C(=O)C(=O)N2CCCCC2C(=O)OC(CCc2ccc(OC)c(OC)c2)c2cccc(c2)NC(=O)CCC(=O)N(C)C(CC(C)C)C(=O)N(C)C(Cc2ccccc2)C(=O)N1C (centres unmarked) [JW11-D2-14]	38.5 ± 4.7 nM
CCC(C)C1C(=O)NCC(=O)N(C)CCC=CC(=O)OCC(C)(C)C(=O)C(=O)N2CCCCC2C(=O)OC(CCc2ccc(OC)c(OC)c2)c2cccc(c2)NC(=O)CCC(=O)N(C)C(CC(C)C)C(=O)NC(CCc2ccccc2)C(=O)N1C (centres unmarked) [JW11-D2-10]	> 3000 nM
